Results reported in patent publication US12275684B2, “Methods for making and using endoxifen” (Atossa Therapeutics, Inc., priority 2017, dated 2025).

Test: Placebo controlled, dose escalation pharmacokinetic study of oral (Z)-Endoxifen capsules (serum endoxifen; incl. accumulation ratios and dose linearity)
Format: in vivo, human
Set-up: Serum concentration, Maximum / Serum concentration, GeoMean / Serum concentration, Mean / Serum concentration, Median / terminal rate constant: unit not given here
Settings: for AUC24hr / AUC to last time point / AUC(0-inf): in ng·h/mL
Description: An objective of the study was to assess the safety and tolerability of oral (Z)-Endoxifen when administered […] orally as a capsule to healthy female volunteers. A secondary objective was to assess the pharmacokinetics of multiple doses of oral (Z)-Endoxifen in the subjects.
Generally, healthy female volunteers aged ≥18 years and ≤65 years were enrolled. 24 participants were enrolled in 3 cohorts and will be administered study drug orally. Three dose levels of orally administered (Z)-Endoxifen were investigated in 3 cohorts. In each cohort participants were randomized to receive an oral (Z)-Endoxifen or placebo in a blinded fashion. Enteric-resistant capsules used in the study were designed as delayed release capsules to resist rupture for at least 30 minutes, but typically, for about 2 hours, under gastric conditions and then open fully in intestinal fluid (DRCaps; Capsugel, a Lonza Company, USA). Enteric-resistant (Swedish Orange size Zero (0); Capsugel, USA) DRCaps capsules manually filled with 1, 2 or 4 mg of (Z)-endoxifen neat in compliance with GMP requirements were used. Placebo capsules contained microcrystalline cellulose an inert common capsule and tablet excipient.
Each cohort enrolled 8 participants, with 6 participants receiving (Z)-Endoxifen 1 mg capsules orally at 1 mg (Cohort 1), 2 mg (Cohort 2) or 4 mg (Cohort 3) doses and 2 participants receiving matching placebo capsules. In Cohort 1 (Dose Level=1 mg) two participants (sentinels) were dosed 24 hours prior to the remaining participants. One sentinel was dosed with (Z)-Endoxifen and the other with placebo. The remaining six participants in Cohort 1 were dosed as no safety concerns were identified in the sentinel participants. The non-sentinel participants in Cohort 1 were admitted to the clinical research facility at least one day later than the sentinels. There were no sentinels in Cohorts 2 and 3.
Participant engagement in this study was for a period of 56 days. These included a 28 day screening period, and a 7 day post treatment period for Pharmacokinetic (PK) sampling. There were two confinement periods, one at the beginning and one at the end of the dosing periods. Participants were confined to the clinical facility on Days-1 through to Day 2 and Days 21 and 22. If participants were to experience any clinically significant adverse events during the study, they would have been required to remain in the clinical facility for further observation at the discretion of the Principal Investigator (PI).
Healthy female volunteers were screened within 28 days prior to commencement of dosing. Participants were admitted to the clinical facility on Day-1 for up to 3 days. The first dose of (Z)-Endoxifen or placebo capsules was administered on Day 1. Following completion of all safety assessments and sampling for PK analyses, participants were discharged from the clinical facility on Day 2. The first dose on Day 1 was followed by a 6-day treatment free period (Days 2-7). Each participant returned to the clinical facility for PK blood draws and safety assessments during the treatment free period on study Days 4 and 6. On Day 8 participants commenced daily administration of (Z)-Endoxifen capsules or placebo capsules for 14 consecutive days (Days 8-21). Participants were supplied with study drug capsules and asked to self administer daily. Participants visited the clinical facility on Days 11, 14 and 17, prior to dose administration, for PK blood draws and safety assessments. On the morning of Day 21 each participant returned to the clinical facility prior to dose administration and were confined to the facility until Day 22 to allow for the collection of PK blood draws and safety assessments. The Day 21 dose was the last administration of study drug. Participants were discharged from the clinical facility on Day 22 and returned for PK blood draws and safety assessments on study Days 24, 26, and 28. […]

[1] = Day 1, dose 4 mg oral, Maximum, N 6
[2] = Day 1, dose 4 mg oral, Minimum, N 6
[3] = Day 21, dose 2 mg oral once daily, GeoMean, N 6
[4] = Day 21, dose 2 mg oral once daily, Maximum, N 6
[5] = Day 21, dose 2 mg oral once daily, Mean, N 6
[6] = Day 21, dose 2 mg oral once daily, Median, N 6
[7] = Day 21, dose 2 mg oral once daily, Minimum, N 6
[8] = Day 21, dose 4 mg oral once daily, GeoMean, N 6
[9] = Day 21, dose 4 mg oral once daily, Maximum, N 6
[10] = Day 21, dose 4 mg oral once daily, Mean, N 6
[11] = Day 21, dose 4 mg oral once daily, Median, N 6
[12] = Day 21, dose 4 mg oral once daily, Minimum, N 6

CC/C(=C(\c1ccc(O)cc1)c1ccc(OCCNC)cc1)c1ccccc1 [(Z)-Endoxifen, (Z)-4-(1-(4-(2-(methylamino)ethoxy)phenyl)-2-phenylbut-1-enyl) phenol]
CL/F, Min (Day 1, 1 mg, N = 5): 1.35 L/h | Cmax, Max (Day 1, 1 mg, N = 5): 12.0 ng/mL | Cmax, Min (Day 1, 1 mg, N = 5): 7.0 ng/mL | Kel, GeoMean (Day 1, 1 mg, N = 5): 0.015 h⁻¹ | Kel, Max (Day 1, 1 mg, N = 5): 0.018 h⁻¹ | Kel, Mean (Day 1, 1 mg, N = 5): 0.015 h⁻¹ | Kel, Median (Day 1, 1 mg, N = 5): 0.015 h⁻¹ | Kel, Min (Day 1, 1 mg, N = 5): 0.013 h⁻¹ | Thalf, GeoMean (Day 1, 1 mg, N = 5): 45.6 h | Thalf, Max (Day 1, 1 mg, N = 5): 54.4 h | Thalf, Mean (Day 1, 1 mg, N = 5): 46.1 h | Thalf, Median (Day 1, 1 mg, N = 5): 47.2 h | Thalf, Min (Day 1, 1 mg, N = 5): 37.5 h | Tmax, Max (Day 1, 1 mg, N = 5): 8.08 h | Tmax, Min (Day 1, 1 mg, N = 5): 2.0 h | CL/F, GeoMean (Day 1, 2 mg, N 6): 1.85 L/h | CL/F, Maximum (Day 1, 2 mg, N 6): 2.65 L/h | CL/F, Mean (Day 1, 2 mg, N 6): 1.89 L/h | CL/F, Median (Day 1, 2 mg, N 6): 1.83 L/h | CL/F, Minimum (Day 1, 2 mg, N 6): 1.34 L/h | Cmax, Maximum (Day 1, 2 mg, N 6): 22.0 ng/mL | Cmax, Minimum (Day 1, 2 mg, N 6): 13.0 ng/mL | Kel, GeoMean (Day 1, 2 mg, N 6): 0.015 h⁻¹ | Kel, Maximum (Day 1, 2 mg, N 6): 0.018 h⁻¹ | Kel, Mean (Day 1, 2 mg, N 6): 0.015 h⁻¹ | Kel, Median (Day 1, 2 mg, N 6): 0.016 h⁻¹ | Kel, Minimum (Day 1, 2 mg, N 6): 0.010 h⁻¹ | Thalf, GeoMean (Day 1, 2 mg, N 6): 47.7 h | Thalf, Maximum (Day 1, 2 mg, N 6): 68.1 h | Thalf, Mean (Day 1, 2 mg, N 6): 49.0 h | Thalf, Median (Day 1, 2 mg, N 6): 44.0 h | Thalf, Minimum (Day 1, 2 mg, N 6): 37.8 h | Tmax, Minimum (Day 1, 2 mg, N 6): 3.00 h | terminal rate constant (Day 1, dose 4 mg oral, GeoMean, N 6): 0.017 | Cmax [1]: 62.0 ng/mL | Tmax [1]: 10.00 h | apparent terminal half life (t½) [1]: 56.0 h | terminal rate constant [1]: 0.022 | AUC24hr [1]: 1116 | AUC to last time point [1]: 3574 | AUC(0-inf) [1]: 4624 | terminal rate constant (Day 1, dose 4 mg oral, Mean, N 6): 0.017 | terminal rate constant (Day 1, dose 4 mg oral, Median, N 6): 0.017 | Cmax [2]: 14.0 ng/mL | Tmax [2]: 3.00 h | apparent terminal half life (t½) [2]: 31.6 h | terminal rate constant [2]: 0.012 | AUC24hr [2]: 258 | AUC to last time point [2]: 691 | AUC(0-inf) [2]: 736 | CL/F, GeoMean (Day 21, 1 mg, N = 5): 2.32 L/h | CL/F, Maximum (Day 21, 1 mg, N = 5): 4.03 L/h | CL/F, Mean (Day 21, 1 mg, N = 5): 2.49 L/h | CL/F, Median (Day 21, 1 mg, N = 5): 1.90 L/h | CL/F, Minimum (Day 21, 1 mg, N = 5): 1.57 L/h | Cmax, Maximum (Day 21, 1 mg, N = 5): 34.0 ng/mL | Cmax, Minimum (Day 21, 1 mg, N = 5): 14.0 ng/mL | Kel, GeoMean (Day 21, 1 mg, N = 5): 0.013 h⁻¹ | Kel, Maximum (Day 21, 1 mg, N = 5): 0.017 h⁻¹ | Kel, Mean (Day 21, 1 mg, N = 5): 0.014 h⁻¹ | Kel, Median (Day 21, 1 mg, N = 5): 0.014 h⁻¹ | Kel, Minimum (Day 21, 1 mg, N = 5): 0.011 h⁻¹ | Thalf, GeoMean (Day 21, 1 mg, N = 5): 51.7 h | Thalf, Maximum (Day 21, 1 mg, N = 5): 65.8 h | Thalf, Mean (Day 21, 1 mg, N = 5): 52.6 h | Thalf, Median (Day 21, 1 mg, N = 5): 49.3 h | Thalf, Minimum (Day 21, 1 mg, N = 5): 40.6 h | Tmax, Maximum (Day 21, 1 mg, N = 5): 8.42 h | Css (AUCtau/tau) [3]: 37.4 ng/mL | terminal rate constant [3]: 0.016 | Cmax [4]: 65.0 ng/mL | Css (AUCtau/tau) [4]: 49.1 ng/mL | Tmax [4]: 6.05 h | apparent terminal half life (t½) [4]: 50.8 h | terminal rate constant [4]: 0.021 | AUC24hr [4]: 1177 | Css (AUCtau/tau) [5]: 38.0 ng/mL | terminal rate constant [5]: 0.016 | Css (AUCtau/tau) [6]: 37.9 ng/mL | terminal rate constant [6]: 0.015 | Cmax [7]: 35.0 ng/mL | Css (AUCtau/tau) [7]: 29.8 ng/mL | Tmax [7]: 2.00 h | apparent terminal half life (t½) [7]: 33.0 h | terminal rate constant [7]: 0.014 | AUC24hr [7]: 716 | Css (AUCtau/tau) [8]: 72.7 ng/mL | terminal rate constant [8]: 0.016 | Cmax [9]: 178.0 ng/mL | Css (AUCtau/tau) [9]: 126.4 ng/mL | Tmax [9]: 10.00 h | apparent terminal half life (t½) [9]: 54.3 h | terminal rate constant [9]: 0.020 | AUC24hr [9]: 3034 | Css (AUCtau/tau) [10]: 85.1 ng/mL | terminal rate constant [10]: 0.016 | Css (AUCtau/tau) [11]: 102.9 ng/mL | terminal rate constant [11]: 0.015 | Cmax [12]: 42.0 ng/mL | Css (AUCtau/tau) [12]: 25.7 ng/mL | Tmax [12]: 2.00 h | apparent terminal half life (t½) [12]: 34.0 h | terminal rate constant [12]: 0.013 | AUC24hr [12]: 616
